Values of other authors, collected in patent publication US9066965B1, “Purified limonin glucoside for prevention and treatment of chronic diseases” (The United States of America, as represented by the …, priority 2012, dated 2015).

Columns and labels:
TGRS = target: T1, TGRS (Homo sapiens, UniProt Q8TDU6); details: cited from earlier work
T1 sequence (Q8TDU6 1-330): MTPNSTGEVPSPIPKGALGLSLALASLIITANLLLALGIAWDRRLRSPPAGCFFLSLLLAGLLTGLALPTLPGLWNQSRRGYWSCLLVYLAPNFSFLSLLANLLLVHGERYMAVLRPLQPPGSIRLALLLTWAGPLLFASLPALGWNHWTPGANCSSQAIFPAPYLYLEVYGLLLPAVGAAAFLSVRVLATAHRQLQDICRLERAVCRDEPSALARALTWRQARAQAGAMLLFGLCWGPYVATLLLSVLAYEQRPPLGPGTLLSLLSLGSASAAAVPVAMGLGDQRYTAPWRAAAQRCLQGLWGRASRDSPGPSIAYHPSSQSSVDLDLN

Hep G2 cell line = details: cited from earlier work
[1] = purified flavonoids, hypercholesterolemic men and women; cited from earlier work
[2] = 0.2% in diet, mice fed high fat diets; cited from earlier work

For CC1(C)O[C@H]2CC(=O)OC[C@]23[C@H]2CC[C@@]4(C)[C@H](c5ccoc5)OC(=O)[C@H]5O[C@]54[C@]2(C)C(=O)C[C@@H]13 [limonin], the “activation of TGRS” value (TGRS) is given as “did not activate” and the “Apo B secretion” value (Hep G2 cell line) is given as “significantly decreased”.
For C[C@@H]1O[C@@H](O[C@H]2[C@H](Oc3cc(O)c4c(c3)O[C@H](c3ccc(O)cc3)CC4=O)O[C@H](CO)[C@@H](O)[C@@H]2O)[C@H](O)[C@H](O)[C@H]1O [naringin], the “effect on serum total- and LDL cholesterol” value [1] is given as “did not alter”.
In the case of COc1ccc([C@@H]2CC(=O)c3c(O)cc(O[C@@H]4O[C@H](CO[C@@H]5O[C@@H](C)[C@H](O)[C@@H](O)[C@H]5O)[C@@H](O)[C@H](O)[C@H]4O)cc3O2)cc1O [hesperidin], the “effect on serum total- and LDL cholesterol” value [1] is given as “did not alter”.
In the case of CC(=O)O[C@H]1CC(=O)OC(C)(C)[C@@H]2CC(=O)[C@]3(C)[C@H](CC[C@@]4(C)[C@H](c5ccoc5)OC(=O)[C@H]5O[C@]543)[C@@]12C [nomilin], the “high fat diet induced obesity and hyperglycemia” value [2] is listed as “prevented” and the “activation of TGRS” value (TGRS) is listed as “activating”.
